Experimental data: ChEMBL document CHEMBL4483862, “Open-source discovery of chemical leads for next-generation chemoprotective antimalarials” (2018)

Test system: Plasmodium berghei
Test: Luciferase/luciferin-expressing antifolate-resistant parasites were used to infect a culture of HepG2 cells that were pre-incubated with compounds. Infected hepatocytes emit light due to the luciferase reaction. Assay results are presented as the percent inhibition of light emission compared to control. […]
Type: functional
Settings: sporozoite; for IC90: read-out: LUCIFERASE INFECTION ASSAY - IC90
[1] = read-out: LUCIFERASE INFECTION ASSAY - IC50

SMILES	IC90 [µM]	IC50 [1] [µM]	further results
CCOc1ccc(NC(=O)c2ccccc2NC(=O)COC(=O)/C(=C/c2cc(OC)c(OC)c(OC)c2)c2ccc(-c3ccccc3)cc2)cc1	> 10	–	IC50 (FFLUC_HILL_SLOPE 2.07, FFLUC_R_SQUARED 0.755, PBLUC_HILL_SLOPE 3.07, PBLUC_R_SQUARED 0.285, read-out: LUCIFERASE INFECTION ASSAY - IC50): 6.17 µM
COc1cc(-c2cnc3ccc(Cc4ccccc4)nn23)cc(OC)c1OC	> 10	–	IC50 (HEPG2TOX_HILL_SLOPE 1.4, HEPG2TOX_R_SQUARED 0.659, PBLUC_HILL_SLOPE 16.5, PBLUC_R_SQUARED 0.342, read-out: LUCIFERASE INFECTION ASSAY - IC50): 9.26 µM
COc1ccc(CCN2C(=O)N(CC(C)C)C(=O)C23CCN(C2CCc4ccccc4C2)CC3)cc1 (stereo not given)	2.72	–	IC50 (HEPG2TOX_HILL_SLOPE 52.5, HEPG2TOX_R_SQUARED 0.896, PBLUC_HILL_SLOPE 13.1, PBLUC_R_SQUARED 0.487, read-out: LUCIFERASE INFECTION ASSAY - IC50): 2.3 µM
CN(C)c1cccc(Nc2nccn3c(-c4ccc5c(c4)OCO5)cnc23)c1	2.84	0.365	–
C=CCNC(=S)N1CCc2sccc2C1c1ccc(Cl)cc1 (stereo not given)	> 9.46	–	IC50 (PBLUC_HILL_SLOPE 2.11, PBLUC_R_SQUARED 0.465, read-out: LUCIFERASE INFECTION ASSAY - IC50): 4.12 µM
O=C(NC1=C(Nc2ccc3c(c2)OCCO3)C(=O)c2ccccc2C1=O)c1ccc(Cl)cc1	> 10	–	IC50 (FFLUC_HILL_SLOPE 16.8, FFLUC_R_SQUARED 0.568, PBLUC_HILL_SLOPE 3.91, PBLUC_R_SQUARED 0.215, read-out: LUCIFERASE INFECTION ASSAY - IC50): 6.65 µM
Cc1sc2nc(-c3cccnc3)nc(NCCNc3ccccn3)c2c1C	1.71	–	IC50 (HEPG2TOX_HILL_SLOPE 1.88, HEPG2TOX_R_SQUARED 0.918, PBLUC_HILL_SLOPE 8.99, PBLUC_R_SQUARED 0.794, read-out: LUCIFERASE INFECTION ASSAY - IC50): 1.34 µM
CSc1cnc(-n2c(-c3ccc(C)cc3)cs/c2=N\C(=O)c2ccccc2)nc1	> 10	–	IC50 (PBLUC_HILL_SLOPE 2.11, PBLUC_R_SQUARED 0.145, read-out: LUCIFERASE INFECTION ASSAY - IC50): > 10 µM
Cc1sc2[nH]c(CSCC(=O)c3cc(C)n(-c4ccc(Br)cc4)c3C)nc(=O)c2c1C	> 10	–	IC50 (PBLUC_HILL_SLOPE 3.74, PBLUC_R_SQUARED 0.361, read-out: LUCIFERASE INFECTION ASSAY - IC50): 6.79 µM
CC(C)CC(N)c1csc(NC(=O)Nc2ccccc2-c2ccccc2)n1 (stereo not given)	4.16	–	IC50 (PBLUC_HILL_SLOPE 10.5, PBLUC_R_SQUARED 0.579, read-out: LUCIFERASE INFECTION ASSAY - IC50): 3.37 µM
C=CCn1c(SCc2cn3c(C)cccc3n2)nc2sc(C)c(C)c2c1=O	> 10	–	IC50 (FFLUC_HILL_SLOPE 10.3, FFLUC_R_SQUARED 0.131, HEPG2TOX_HILL_SLOPE 7.8, HEPG2TOX_R_SQUARED 0.483, read-out: LUCIFERASE INFECTION ASSAY - IC50): > 10 µM
CCn1nc(C(=O)OCC(=O)Nc2cc(S(=O)(=O)N3CCCCC3)ccc2Cl)c2ccccc2c1=O	> 10	> 10	–
Cc1cc(C(=O)Nc2ccc(OCc3ncc(C(F)(F)F)cc3Cl)cc2)no1	1.33	–	IC50 (PBLUC_HILL_SLOPE 1.94, PBLUC_R_SQUARED 0.889, read-out: LUCIFERASE INFECTION ASSAY - IC50): 0.429 µM
COc1ccc(C(=O)COC(=O)Cc2cccc(C(F)(F)F)c2)cc1	1.69	–	IC50 (HEPG2TOX_HILL_SLOPE 1.29, HEPG2TOX_R_SQUARED 0.956, PBLUC_HILL_SLOPE 8.73, PBLUC_R_SQUARED 0.385, read-out: LUCIFERASE INFECTION ASSAY - IC50): 1.32 µM
Cc1sc(NC(=O)Cc2coc3cc4c(cc23)CCC4)nc1-c1ccc(Cl)cc1	> 10	> 10	–
CCCCNC(=O)c1c(NC(=O)c2ccc(F)cc2)nc2ccc(C)cn12	3.28	2.67	–
O=C(CN1CCN(S(=O)(=O)c2cccs2)CC1)Nc1ccccc1C(=O)c1ccccc1	> 10	–	IC50 (PBLUC_HILL_SLOPE 1.98, PBLUC_R_SQUARED 0.361, read-out: LUCIFERASE INFECTION ASSAY - IC50): 5.33 µM
FC(F)Sc1ccc(NC(=S)NCC(c2ccco2)N2CCCCC2)cc1 (stereo not given)	> 10	6.18	–
O=C(Nc1nc(CN2CCCC2)cs1)c1ccc(-c2ccccc2)cc1	> 10	–	IC50 (HEPG2TOX_HILL_SLOPE 2.9, HEPG2TOX_R_SQUARED 0.919, read-out: LUCIFERASE INFECTION ASSAY - IC50): > 10 µM
O=C(Nc1ccc(C(F)(F)F)cc1)Nc1sccc1Cl	7.98	–	IC50 (HEPG2TOX_HILL_SLOPE 9.59, HEPG2TOX_R_SQUARED 0.7, PBLUC_HILL_SLOPE 5.14, PBLUC_R_SQUARED 0.452, read-out: LUCIFERASE INFECTION ASSAY - IC50): 5.21 µM
COC(=O)C1C(c2ccc(N(C)C)cc2)C(C(=O)OC)S(=O)(=O)C(=NNc2ccc(OC)cc2[N+](=O)[O-])S1(=O)=O (stereo not given)	> 10	–	IC50 (FFLUC_HILL_SLOPE 2.66, FFLUC_R_SQUARED 0.775, read-out: LUCIFERASE INFECTION ASSAY - IC50): > 10 µM
Fc1ccc(-c2cc3ncnc(NC4CC4)c3s2)cc1	> 10	> 10	–
Cc1cccc(Cn2nc(C(C)(C)C)cc2-c2nnc(SCC(=O)c3ccc(Cl)cc3)o2)c1	> 6.86	–	IC50 (FFLUC_HILL_SLOPE 7.72, FFLUC_R_SQUARED 0.435, PBLUC_HILL_SLOPE 3.63, PBLUC_R_SQUARED 0.42, read-out: LUCIFERASE INFECTION ASSAY - IC50): 6.23 µM

SMILES	IC90 [µM]	IC50 [1] [µM]	further results
Clc1ccc(-c2nc3ncc(Br)cc3[nH]2)cc1	3.76	–	IC50 (FFLUC_HILL_SLOPE 1.95, FFLUC_R_SQUARED 0.684, PBLUC_HILL_SLOPE 3.28, PBLUC_R_SQUARED 0.422, read-out: LUCIFERASE INFECTION ASSAY - IC50): 1.92 µM
Cc1cc(C)c(CSC2=NCCCN2C2CCCCC2)c(C)c1	> 8.99	> 8.99	–
CC(CNC(=O)C1CCN(S(=O)(=O)c2cccs2)CC1)c1nc2ccccc2n1C(F)F (stereo not given)	> 10	> 10	–
CC(C)NC(=O)c1c(NC(=O)c2ccc(Cl)cc2)nc2ccccn12	1.07	–	IC50 (HEPG2TOX_HILL_SLOPE 2.11, HEPG2TOX_R_SQUARED 0.869, PBLUC_HILL_SLOPE 50.8, PBLUC_R_SQUARED 0.665, read-out: LUCIFERASE INFECTION ASSAY - IC50): 1.02 µM
O=[N+]([O-])c1ccccc1N1CCN(Cc2nc3ccccc3s2)CC1	> 10	> 10	–
COCCNc1nc(Nc2ccc(C)cc2C)c2sccc2n1	> 10	–	IC50 (HEPG2TOX_HILL_SLOPE 2.54, HEPG2TOX_R_SQUARED 0.987, PBLUC_HILL_SLOPE 3.36, PBLUC_R_SQUARED 0.0445, read-out: LUCIFERASE INFECTION ASSAY - IC50): > 10 µM
COc1cc(C(=O)Nc2ccc(-c3cn4ccsc4n3)cc2)ccc1OCC(=O)N1CCOCC1	> 10	> 10	–
COc1cccc(NC(=O)c2csc(C(O)c3cccc(C(F)(F)F)c3)n2)c1 (stereo not given)	> 10	> 10	–
Cc1ccc(C(=O)Nc2cccc(CNC(C)c3ccc(F)cc3F)c2)cc1 (stereo not given)	> 10	> 10	–
O=c1c(Cl)c2oc3ccccc3nc-2c2ccccc12	> 11.7	–	IC50 (HEPG2TOX_HILL_SLOPE 6.69, HEPG2TOX_R_SQUARED 0.668, PBLUC_HILL_SLOPE 2.65, PBLUC_R_SQUARED 0.745, read-out: LUCIFERASE INFECTION ASSAY - IC50): 5.79 µM
CSc1nccc(-c2sc(SC)c3c2CCCC3=O)n1	> 10.2	> 10.2	–
COc1ccc(C)cc1NC(=O)CN(Cc1ccc2c(c1)OCO2)C1CCCC1	> 10	> 10	–
OCc1ccc(-c2cnc3cnc(-c4ccccc4CO)cn23)cc1	> 9.96	> 9.96	–
c1ccc(-c2csc3nc(CN4CCCCC4)nc(Sc4nnc(-c5cccnc5)o4)c23)cc1	3.67	–	IC50 (HEPG2TOX_HILL_SLOPE 3.21, 5.75, HEPG2TOX_R_SQUARED 0.957, 0.718, PBLUC_HILL_SLOPE 33.6, 11.3, PBLUC_R_SQUARED 0.628, 0.512, read-out: LUCIFERASE INFECTION ASSAY - IC50): 3.23 µM
COc1ccc(-c2csc3ncnc(NCCCCCc4n[nH]c(N)c4C#N)c23)cc1	3.53	–	IC50 (HEPG2TOX_HILL_SLOPE 1.47, HEPG2TOX_R_SQUARED 0.942, PBLUC_HILL_SLOPE 36.2, PBLUC_R_SQUARED 0.623, read-out: LUCIFERASE INFECTION ASSAY - IC50): 3.33 µM
Cc1cccc(C(=O)Nc2sc3c(c2C(=O)N2CCCCC2)CCCCC3)c1	6.3	0.805	–
Oc1c(C(c2ccc(C(F)(F)F)cc2)N2CCCC2)cc(Cl)c2cccnc12 (stereo not given)	2.26	–	IC50 (FFLUC_HILL_SLOPE 12.3, FFLUC_R_SQUARED 0.824, HEPG2TOX_HILL_SLOPE 1.2, HEPG2TOX_R_SQUARED 0.387, PBLUC_HILL_SLOPE 2.74, PBLUC_R_SQUARED 0.879, read-out: LUCIFERASE INFECTION ASSAY - IC50): 1.01 µM
CC(C)c1ccc(NC(=O)N2CCc3nc(NCc4cccc(Oc5ccccc5)c4)ncc3C2)cc1	> 6.69	> 6.69	–
OCc1ccc(-c2cnc3ccc(-c4ccoc4)nn23)cc1	> 10	4.97	–
Cc1cccc2nc(CSC(=S)NCc3cccnc3)cn12	> 10	–	IC50 (HEPG2TOX_HILL_SLOPE 3.71, HEPG2TOX_R_SQUARED 0.958, PBLUC_HILL_SLOPE 13, PBLUC_R_SQUARED 0.345, read-out: LUCIFERASE INFECTION ASSAY - IC50): 9.61 µM
CCOC(=O)N1CCN(C2c3ccccc3-c3ccccc32)CC1	> 10.2	8.79	–
CCOC(=O)c1c(C)[nH]c(C)c1C(=O)COC(=O)c1c(OC)cccc1OC	> 10	> 10	–
